Assay results from ChEMBL document CHEMBL3044741, “Synthesis of novel biologically active methylene derivatives of sydnones” (Med Chem Res, 2013).
In brackets after ≈: the same amount, converted by molar mass.

What was measured:
Candida albicans [1] = experiment: Antifungal activity against Candida albicans MTCC 227; format: functional
Aspergillus clavatus [2] = experiment: Antifungal activity against Aspergillus clavatus MTCC 1323 at 250 ug/ml after 74 hrs by Kirby-Bauer method; format: functional; conditions: MTCC 1323, 74 h, read-out: IZ
Human alphaherpesvirus 3 [3] = experiment: Antiviral activity against thymidine kinase-deficient Varicella-zoster virus infected in HEL cells assessed as reduction in plaque formation; format: functional, organism-based; conditions: Human alphaherpesvirus 3, HEL
Cytomegalovirus [4] = experiment: Antiviral activity against Cytomegalovirus AD-169 infected in HEL cells assessed as reduction in plaque formation; format: functional, organism-based; conditions: Human betaherpesvirus 5, AD-169, HEL
[5] = Selectivity index, ratio of CC50 for human MT4 cells to IC50 for HIV2 ROD; format: functional
[6] = test system: Human immunodeficiency virus 2; experiment: Antiviral activity against HIV2 ROD infected in MT4 cells assessed as inhibition of virus-induced cytopathogenicity by MTT assay; format: functional, organism-based; conditions: Human immunodeficiency virus 2, ISOLATE ROD
Staphylococcus aureus [7] = experiment: Antibacterial activity against Staphylococcus aureus MTCC 96 at 250 ug/ml after 24 hrs by Kirby-Bauer method; format: functional; conditions: MTCC 96, 24 h, read-out: IZ
Streptococcus pyogenes [8] = experiment: Antibacterial activity against Streptococcus pyogenes MTCC 442 at 250 ug/ml after 24 hrs by Kirby-Bauer method; format: functional; conditions: MTCC 442, 24 h, read-out: IZ
Candida albicans [9] = experiment: Antifungal activity against Candida albicans MTCC 227 at 250 ug/ml after 74 hrs by Kirby-Bauer method; format: functional; conditions: MTCC 227, 74 h, read-out: IZ
Escherichia coli [10] = experiment: Antibacterial activity against Escherichia coli MTCC 443 after 24 hrs by broth dilution method; format: functional; conditions: MTCC 443, 24 h
Staphylococcus aureus [11] = experiment: Antibacterial activity against Staphylococcus aureus MTCC 96 after 24 hrs by broth dilution method; format: functional; conditions: MTCC 96, 24 h
Pseudomonas aeruginosa [12] = experiment: Antibacterial activity against Pseudomonas aeruginosa MTCC 424 at 250 ug/ml after 24 hrs by Kirby-Bauer method; format: functional; conditions: MTCC 424, 24 h, read-out: IZ
Streptococcus pyogenes [13] = experiment: Antibacterial activity against Streptococcus pyogenes MTCC 442 after 24 hrs by broth dilution method; format: functional; conditions: MTCC 442, 24 h
Aspergillus niger [14] = experiment: Antifungal activity against Aspergillus niger MTCC 282 at 250 ug/ml after 74 hrs by Kirby-Bauer method; format: functional; conditions: MTCC 282, 74 h, read-out: IZ
Human alphaherpesvirus 3 [15] = experiment: Antiviral activity against Varicella-zoster virus Oka expressing thymidine kinase infected in HEL cells assessed as reduction in plaque formation; format: functional, organism-based; conditions: Human alphaherpesvirus 3, strain Oka vaccine
Escherichia coli [16] = experiment: Antibacterial activity against Escherichia coli MTCC 443 at 250 ug/ml after 24 hrs by Kirby-Bauer method; format: functional; conditions: MTCC 443, 24 h, read-out: IZ
[17] = Cytotoxicity against human MT4 cells by MTT assay; format: cell-based
[18] = test system: Human immunodeficiency virus 1; experiment: Antiviral activity against HIV1 3B infected in MT4 cells assessed as inhibition of virus-induced cytopathogenicity by MTT assay; format: functional, organism-based; conditions: Human immunodeficiency virus 1, 3B
[19] = Cytotoxicity against human HEL cells; format: cell-based
Pseudomonas aeruginosa [20] = experiment: Antibacterial activity against Pseudomonas aeruginosa MTCC 424 after 24 hrs by broth dilution method; format: functional; conditions: MTCC 424, 24 h
Cytomegalovirus [21] = experiment: Antiviral activity against Cytomegalovirus Davis in HEL cells assessed as reduction in plaque formation; format: functional, organism-based; conditions: Human betaherpesvirus 5, Davis
[22] = Selectivity index, ratio of CC50 for human MT4 cells to IC50 for HIV1 3B; format: functional
[23] = Cytotoxicity against human HEL cells assessed as alteration in cell morphology; format: cell-based
Aspergillus clavatus [24] = experiment: Antifungal activity against Aspergillus clavatus MTCC 1323; format: functional
Aspergillus niger [25] = experiment: Antifungal activity against Aspergillus niger MTCC 282; format: functional

SMILES: Cc1ccc(-[n+]2noc([O-])c2CN2CCN(c3ccccc3)CC2)cc1
- MIC (Candida albicans [1]): 500 µg/mL (≈ 1430 µM)
- zone of inhibition at 250 µg/mL (Aspergillus clavatus [2]): 21 mm
- EC50 (Human alphaherpesvirus 3 [3]): > 4 µg/mL
- EC50 (Cytomegalovirus [4]): > 20 µg/mL
- Ratio CC50/IC50 [5]: <1
- IC50 [6]: > 13.2 µg/mL
- zone of inhibition at 250 µg/mL (Staphylococcus aureus [7]): 18 mm
- zone of inhibition at 250 µg/mL (Streptococcus pyogenes [8]): 18 mm
- zone of inhibition at 250 µg/mL (Candida albicans [9]): 21 mm
- MIC (Escherichia coli [10]): 500 µg/mL (≈ 1430 µM)
- MIC (Staphylococcus aureus [11]): 250 µg/mL (≈ 713 µM)
- zone of inhibition at 250 µg/mL (Pseudomonas aeruginosa [12]): 20 mm
- MIC (Streptococcus pyogenes [13]): 250 µg/mL (≈ 713 µM)
- zone of inhibition at 250 µg/mL (Aspergillus niger [14]): 24 mm
- EC50 (Human alphaherpesvirus 3 [15]): > 4 µg/mL
- zone of inhibition at 250 µg/mL (Escherichia coli [16]): 16 mm
- CC50 [17]: 13.2 µg/mL (≈ 37.8 µM)
- IC50 [18]: > 13.2 µg/mL
- CC50 [19]: 20 µg/mL (≈ 57.1 µM)
- MIC (Pseudomonas aeruginosa [20]): 100 µg/mL (≈ 285 µM)
- EC50 (Cytomegalovirus [21]): > 20 µg/mL
- Ratio CC50/IC50 [22]: <1
- MCC [23]: 100 µg/mL
- MIC (Aspergillus clavatus [24]): 500 µg/mL (≈ 1430 µM)
- MIC (Aspergillus niger [25]): 200 µg/mL (≈ 571 µM)

SMILES: [O-]c1on[n+](-c2ccc(Cc3ccc(-[n+]4noc([O-])c4CN4CCN(C5=Nc6ccccc6Sc6ccccc65)CC4)cc3)cc2)c1CN1CCN(C2=Nc3ccccc3Sc3ccccc32)CC1
- MIC (Candida albicans [1]): 500 µg/mL (≈ 526 µM)
- zone of inhibition at 250 µg/mL (Aspergillus clavatus [2]): 23 mm
- EC50 (Human alphaherpesvirus 3 [3]): > 4 µg/mL
- EC50 (Cytomegalovirus [4]): > 20 µg/mL
- Ratio CC50/IC50 [5]: <1
- IC50 [6]: > 11.6 µg/mL
- zone of inhibition at 250 µg/mL (Staphylococcus aureus [7]): 23 mm
- zone of inhibition at 250 µg/mL (Streptococcus pyogenes [8]): 18 mm
- zone of inhibition at 250 µg/mL (Candida albicans [9]): 25 mm
- MIC (Escherichia coli [10]): 250 µg/mL (≈ 263 µM)
- MIC (Staphylococcus aureus [11]): 62.5 µg/mL (≈ 65.7 µM)
- zone of inhibition at 250 µg/mL (Pseudomonas aeruginosa [12]): 21 mm
- MIC (Streptococcus pyogenes [13]): 250 µg/mL (≈ 263 µM)
- zone of inhibition at 250 µg/mL (Aspergillus niger [14]): 18 mm
- EC50 (Human alphaherpesvirus 3 [15]): > 4 µg/mL
- zone of inhibition at 250 µg/mL (Escherichia coli [16]): 19 mm
- CC50 [17]: 11.6 µg/mL (≈ 12.2 µM)
- IC50 [18]: > 11.6 µg/mL
- CC50 [19]: 13.8 µg/mL (≈ 14.5 µM)
- MIC (Pseudomonas aeruginosa [20]): 125 µg/mL (≈ 131 µM)
- EC50 (Cytomegalovirus [21]): > 20 µg/mL
- Ratio CC50/IC50 [22]: <1
- MCC [23]: 100 µg/mL
- MIC (Aspergillus clavatus [24]): 500 µg/mL (≈ 526 µM)
- MIC (Aspergillus niger [25]): 1000 µg/mL (≈ 1050 µM)

SMILES: Cc1ccc(-[n+]2noc([O-])c2CN2CCCCC2)cc1
- MIC (Candida albicans [1]): 250 µg/mL (≈ 915 µM)
- zone of inhibition at 250 µg/mL (Aspergillus clavatus [2]): 25 mm
- EC50 (Human alphaherpesvirus 3 [3]): > 20 µg/mL
- EC50 (Cytomegalovirus [4]): > 20 µg/mL
- Ratio CC50/IC50 [5]: <1
- IC50 [6]: > 18.7 µg/mL
- zone of inhibition at 250 µg/mL (Staphylococcus aureus [7]): 16 mm
- zone of inhibition at 250 µg/mL (Streptococcus pyogenes [8]): 18 mm
- zone of inhibition at 250 µg/mL (Candida albicans [9]): 21 mm
- MIC (Escherichia coli [10]): 100 µg/mL (≈ 366 µM)
- MIC (Staphylococcus aureus [11]): 500 µg/mL (≈ 1830 µM)
- zone of inhibition at 250 µg/mL (Pseudomonas aeruginosa [12]): 21 mm
- MIC (Streptococcus pyogenes [13]): 200 µg/mL (≈ 732 µM)
- zone of inhibition at 250 µg/mL (Aspergillus niger [14]): 24 mm
- EC50 (Human alphaherpesvirus 3 [15]): > 20 µg/mL
- zone of inhibition at 250 µg/mL (Escherichia coli [16]): 21 mm
- CC50 [17]: 18.7 µg/mL (≈ 68.3 µM)
- IC50 [18]: > 18.7 µg/mL
- CC50 [19]: 28.5 µg/mL (≈ 104 µM)
- MIC (Pseudomonas aeruginosa [20]): 250 µg/mL (≈ 915 µM)
- EC50 (Cytomegalovirus [21]): > 20 µg/mL
- Ratio CC50/IC50 [22]: <1
- MCC [23]: 100 µg/mL
- MIC (Aspergillus clavatus [24]): 250 µg/mL (≈ 915 µM)
- MIC (Aspergillus niger [25]): 500 µg/mL (≈ 1830 µM)

SMILES: Cc1ccc(-[n+]2noc([O-])c2CN2CCN(C)CC2)cc1
- MIC (Candida albicans [1]): 500 µg/mL (≈ 1730 µM)
- zone of inhibition at 250 µg/mL (Aspergillus clavatus [2]): 21 mm
- EC50 (Human alphaherpesvirus 3 [3]): > 20 µg/mL
- EC50 (Cytomegalovirus [4]): > 20 µg/mL
- Ratio CC50/IC50 [5]: <1
- IC50 [6]: > 12.7 µg/mL
- zone of inhibition at 250 µg/mL (Staphylococcus aureus [7]): 16 mm
- zone of inhibition at 250 µg/mL (Streptococcus pyogenes [8]): 20 mm
- zone of inhibition at 250 µg/mL (Candida albicans [9]): 18 mm
- MIC (Escherichia coli [10]): 250 µg/mL (≈ 867 µM)
- MIC (Staphylococcus aureus [11]): 500 µg/mL (≈ 1730 µM)
- zone of inhibition at 250 µg/mL (Pseudomonas aeruginosa [12]): 21 mm
- MIC (Streptococcus pyogenes [13]): 100 µg/mL (≈ 347 µM)
- zone of inhibition at 250 µg/mL (Aspergillus niger [14]): 21 mm
- EC50 (Human alphaherpesvirus 3 [15]): > 20 µg/mL
- zone of inhibition at 250 µg/mL (Escherichia coli [16]): 18 mm
- CC50 [17]: 12.7 µg/mL (≈ 44 µM)
- IC50 [18]: > 12.9 µg/mL
- CC50 [19]: 25.6 µg/mL (≈ 88.8 µM)
- MIC (Pseudomonas aeruginosa [20]): 100 µg/mL (≈ 347 µM)
- EC50 (Cytomegalovirus [21]): > 20 µg/mL
- Ratio CC50/IC50 [22]: <1
- MCC [23]: 100 µg/mL
- MIC (Aspergillus clavatus [24]): 500 µg/mL (≈ 1730 µM)
- MIC (Aspergillus niger [25]): 500 µg/mL (≈ 1730 µM)

SMILES: CC(=O)N1CCN(Cc2c([O-])on[n+]2-c2ccc(Cc3ccc(-[n+]4noc([O-])c4CN4CCN(C(C)=O)CC4)cc3)cc2)CC1
- MIC (Candida albicans [1]): 250 µg/mL (≈ 405 µM)
- zone of inhibition at 250 µg/mL (Aspergillus clavatus [2]): 25 mm
- EC50 (Human alphaherpesvirus 3 [3]): > 0.8 µg/mL
- EC50 (Cytomegalovirus [4]): > 4 µg/mL
- Ratio CC50/IC50 [5]: <1
- IC50 [6]: > 12 µg/mL
- zone of inhibition at 250 µg/mL (Staphylococcus aureus [7]): 20 mm
- zone of inhibition at 250 µg/mL (Streptococcus pyogenes [8]): 16 mm
- zone of inhibition at 250 µg/mL (Candida albicans [9]): 23 mm
- MIC (Escherichia coli [10]): 250 µg/mL (≈ 405 µM)
- MIC (Staphylococcus aureus [11]): 250 µg/mL (≈ 405 µM)
- zone of inhibition at 250 µg/mL (Pseudomonas aeruginosa [12]): 18 mm
- MIC (Streptococcus pyogenes [13]): 100 µg/mL (≈ 162 µM)
- zone of inhibition at 250 µg/mL (Aspergillus niger [14]): 21 mm
- EC50 (Human alphaherpesvirus 3 [15]): > 0.8 µg/mL
- zone of inhibition at 250 µg/mL (Escherichia coli [16]): 18 mm
- CC50 [17]: 12 µg/mL (≈ 19.4 µM)
- IC50 [18]: > 12 µg/mL
- CC50 [19]: 10.2 µg/mL (≈ 16.5 µM)
- MIC (Pseudomonas aeruginosa [20]): 200 µg/mL (≈ 324 µM)
- EC50 (Cytomegalovirus [21]): > 4 µg/mL
- Ratio CC50/IC50 [22]: <1
- MCC [23]: 20 µg/mL
- MIC (Aspergillus clavatus [24]): 250 µg/mL (≈ 405 µM)
- MIC (Aspergillus niger [25]): 1000 µg/mL (≈ 1620 µM)
